# Columns and labels:
# [1] = test system: Staphylococcus aureus NCTC 6571; assay: MIC, doubling dilution in 96-well microtitre plate; type: cell-based
# Method: (§1) The compound was tested as follows. […] The wells were inoculated with organism ([…] of medium containing 10^6 cfu/mL) and the plates were incubated at 37° C. overnight. Where growth of organism occurred this was observed as a small button when viewed from underneath the plate. The MIC was determined as the lowest concentration inhibiting growth.
# [2] = test system: Streptococcus bovis NCTC 11436; assay: MIC, doubling dilution in 96-well microtitre plate; type: cell-based
# Method: as §1
# Bacillus subtilis = assay: MIC, doubling dilution in 96-well microtitre plate; type: cell-based
# Method: as §1
# [3] = test system: Staphylococcus aureus (MRSA) 96-7475; assay: MIC, doubling dilution in 96-well microtitre plate; type: cell-based
# Method: as §1
# Moraxella catarrhalis = assay: MIC, doubling dilution in 96-well microtitre plate; type: cell-based
# Method: as §1
# Enterococcus faecium = assay: MIC, doubling dilution in 96-well microtitre plate; type: cell-based
# Method: as §1
# Bacillus cereus = assay: MIC, doubling dilution in 96-well microtitre plate; type: cell-based
# Method: as §1
# [4] = test system: Enterococcus faecalis NCTC 5957; assay: MIC, doubling dilution in 96-well microtitre plate; type: cell-based
# Method: as §1
# [5] = test system: Staphylococcus epidermidis NCTC 11047; assay: MIC, doubling dilution in 96-well microtitre plate; type: cell-based
# Method: as §1
# Bacillus megarerium = assay: MIC, doubling dilution in 96-well microtitre plate; type: cell-based
# Method: as §1
# Micrococcus roseus = assay: MIC, doubling dilution in 96-well microtitre plate; type: cell-based
# Method: as §1
# Micrococcus luteus = assay: MIC, doubling dilution in 96-well microtitre plate; type: cell-based
# Method: as §1
# Bacillus polymyxa = assay: MIC, doubling dilution in 96-well microtitre plate; type: cell-based
# Method: as §1
# E. faecium isolates = conditions: against 86% of E. faecium isolates; cited from earlier work
# MRSA = assay: MIC, agar dilution, multipoint inoculator; type: cell-based, methicillin-resistant Staphylococcus aureus; conditions: Staphylococcus aureus, MRSA, 18 h, panel of ten MRSA strains (clinical isolates); read-out: MRSA MIC range
# Outline: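 Agar dilution MIC on Mueller Hinton agar, multipoint inoculator delivering 10^4 colony forming units per spot. MRSA values are ranges across ten clinical MRSA strains; S. aureus NCTC 6571 as reference strain.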
# [6] = test system: human mononuclear leucocytes (MNL, white blood cells); conditions: rat liver microsomes added; Coleman et al 1999; cited from earlier work
# [7] = test system: human mononuclear leucocytes (MNL, white blood cells); assay: direct leucocyte toxicity, tryptan blue exclusion, 18 hours; type: cell-based; conditions: human, 18 h, 1 mM
# Method: The in vitro assay used human mononuclear leucocytes (MNL, white blood cells) which were incubated with the test compound for 18 hours and cell death determined by tryptan blue exclusion (tryptan blue is a dye, which stains dead cells, whilst living cells extrude it).
# The toxicity of 4PYcq and the aldehyde cq and pyridine-4-carboxamidrazone precursors were assessed using the same in vitro assay with human mononuclear leucocytes as that described above. The toxicity of related compounds, 2-hydroxybenzylidene-pyridine-2-carboxamidrazone 4PYbw and benzylidenepyridine-2-carboxamidrazone 4PYaa were also examined.
# [8] = test system: Staphylococcus aureus W11 MRSA; assay: MIC, doubling dilution in 96-well microtitre plate; type: cell-based
# Method: as §1
# [9] = test system: Staphylococcus aureus NCTC 10788; assay: MIC, doubling dilution in 96-well microtitre plate; type: cell-based
# Method: as §1
# [10] = Enterococcus faecium ATCC 10541
compound,measurement,setting,value
CC(C)(C)c1cc(C=NN=C(N)c2cc[n+]([O-])cc2)c(O)c(C(C)(C)C)c1 [Compound 4PYOcq],MIC,[1],16 to 32 µg/mL
same,MIC,[2],64 to 128 µg/mL
same,MIC,Bacillus subtilis,64 to 128 µg/mL
same,MIC,[3],64 to 128 µg/mL
same,MIC,Moraxella catarrhalis,32 to 64 µg/mL
same,MIC,Enterococcus faecium; [10],32 to 64 µg/mL
same,MIC,Enterococcus faecium; Enterococcus faecium NCTC 7171,32 to 64 µg/mL
same,MIC,Bacillus cereus,16 to 32 µg/mL
same,MIC,[4],64 to 128 µg/mL
same,MIC,[5],32 to 64 µg/mL
same,MIC,Bacillus megarerium,32 to 64 µg/mL
same,MIC,Micrococcus roseus,1 to 2 µg/mL
same,MIC,Micrococcus luteus,8 to 16 µg/mL
same,MIC,Bacillus polymyxa,1 to 2 µg/mL
quinupristin/dalfopristin,MIC,E. faecium isolates,≤ 2 µg/mL
N/C(=N\N=C\c1cccc2ccccc12)c1ccccn1 [Compound 2PYal],MIC,MRSA,> 256 µg/mL
same,cytotoxicity in the presence of the metabolising system (in words),[6],marked reduction in cytotoxicity
same,% Leucocyte Death,[7],17.1 ± 4.9%
NC(=NN=Cc1cccc2ccccc12)c1cc[n+]([O-])cc1 [Compound 4PYOal],MIC,Bacillus subtilis,16 to 32 µg/mL
same,MIC,Moraxella catarrhalis,16 to 32 µg/mL
same,MIC,Enterococcus faecium; [10],16 to 32 µg/mL
same,MIC,Bacillus cereus,8 to 16 µg/mL
same,MIC,Bacillus megarerium,16 to 32 µg/mL
same,MIC,Micrococcus roseus,16 to 32 µg/mL
same,MIC,Micrococcus luteus,16 to 32 µg/mL
NC(=NN=Cc1c2ccccc2cc2ccccc12)c1cc[n+]([O-])cc1 [Compound 4PYOam],MIC,Bacillus subtilis,64 to 128 µg/mL
same,MIC,Enterococcus faecium; [10],64 to 128 µg/mL
same,MIC,[4],64 to 128 µg/mL
same,MIC,Micrococcus roseus,32 to 64 µg/mL
CC(C)(C)c1cccc(C=NN=C(N)c2cc[n+]([O-])cc2)c1O [Compound 4PYOfg],MIC,[2],32 to 64 µg/mL
same,MIC,Moraxella catarrhalis,4 to 8 µg/mL
same,MIC,Micrococcus luteus,8 to 16 µg/mL
CC(C)(C)c1ccc(C=NN=C(N)c2cc[n+]([O-])cc2)cc1 [Compound 4PYOfb],MIC,Bacillus subtilis,8 to 16 µg/mL
same,MIC,Moraxella catarrhalis,32 to 64 µg/mL
same,MIC,Enterococcus faecium; [10],16 to 32 µg/mL
same,MIC,Bacillus cereus,16 to 32 µg/mL
same,MIC,Bacillus megarerium,16 to 32 µg/mL
same,MIC,Micrococcus roseus,8 to 16 µg/mL
CC(C)(C)c1cc(C=NN=C(N)c2cc[n+]([O-])cc2)cc(C(C)(C)C)c1 [Compound 4PYOff],MIC,[1],32 to 64 µg/mL
same,MIC,[2],32 to 64 µg/mL
same,MIC,Bacillus subtilis,32 to 64 µg/mL
same,MIC,[3],32 to 64 µg/mL
same,MIC,Moraxella catarrhalis,16 to 32 µg/mL
same,MIC,[8],32 to 64 µg/mL
same,MIC,Enterococcus faecium; [10],32 to 64 µg/mL
same,MIC,Bacillus cereus,32 to 64 µg/mL
same,MIC,[4],32 to 64 µg/mL
same,MIC,[9],32 to 64 µg/mL
same,MIC,[5],32 to 64 µg/mL
same,MIC,Micrococcus luteus,32 to 64 µg/mL

# From patent US20080096894A1, “Anti-Bacterial Compounds” (ASTON UNIVERSITY, priority 2005, published 2008)
